Assay results from paper PMC6456241 (Preventive Nutrition and Food Science, 2018).

Experiments:
[1] = biological target: mushroom tyrosinase (EC 1.14.18.1) (Agaricus bisporus, UniProt C7FF04); assay: Assay of tyrosinase; assay type: biochemical
[2] = biological target: α-Glucosidase (EC 3.2.1.20); assay: Assay of α-glucosidase; assay type: biochemical; conditions: read-out: Inhibition (IC50) α-Glucosidase; isolated compounds; pNPG substrate, pH 6.8, 37°C; mean±SD of triplicate

mushroom tyrosinase (EC 1.14.18.1), sequence (C7FF04 1-392 limits assumed): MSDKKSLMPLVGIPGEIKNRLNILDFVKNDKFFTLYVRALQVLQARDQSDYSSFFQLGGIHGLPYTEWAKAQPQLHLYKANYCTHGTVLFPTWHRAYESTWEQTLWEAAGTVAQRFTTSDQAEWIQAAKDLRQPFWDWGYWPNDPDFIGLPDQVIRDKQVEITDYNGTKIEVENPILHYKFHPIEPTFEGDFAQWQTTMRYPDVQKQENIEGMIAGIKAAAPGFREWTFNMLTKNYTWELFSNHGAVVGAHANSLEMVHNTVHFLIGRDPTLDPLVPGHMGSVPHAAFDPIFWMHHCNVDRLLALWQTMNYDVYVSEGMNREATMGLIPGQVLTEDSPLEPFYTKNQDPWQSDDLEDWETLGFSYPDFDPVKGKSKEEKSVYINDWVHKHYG

| Structure (SMILES) | IC50 [1] [µM] | IC50 [2] [µM] |
| --- | --- | --- |
| CC(C)=CCc1c(O)ccc(C(=O)[C@H]2[C@@H](c3c(O)cc(-c4cc5ccc(O)cc5o4)cc3O)C=C(C)C[C@@H]2c2ccc(O)cc2O)c1O [CMC, chalcomoracin] | 5.61 ± 0.2 | 6 ± 0.46 |
| CC(C)=CCc1c(O)cc(-c2cc3ccc(O)cc3o2)cc1O [MCC, moracin C] | 37.9 ± 0.42 | 88.8 ± 1.32 |
| Oc1cc(O)cc(/C=C/c2ccc(O)cc2O)c1 [ORT, oxyresveratrol] | 0.57 ± 0.04 | 273 ± 13.2 |
| Oc1cc(O)cc(-c2cc3ccc(O)cc3o2)c1 [MCM, moracin M] | 17.2 ± 0.37 | 168 ± 2.44 |
| CC(C)=CCc1cc2cc(-c3cc(O)cc(O)c3)oc2cc1O [MCN, moracin N] | 10.16 ± 0.03 | 59.4 ± 2 |
